# Measured values taken from US20240393292A1, “ALLERGY ANTIGEN AND EPITOPE THEREOF” (HOYU CO., LTD., priority 2019, published 2024).
# Test system: IgE antibodies from patients
# Test: Wheat epitope mapping (2): overlapping 10-amino-acid peptide fragments shifted by one amino acid;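 for Rank of partial sequence as epitope binding to IgE antibody: key = sequence deemed particularly important within the common 15-residue sequence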
# Assay type: binding, human
# Settings: sequence without X; for Epitope sequence binding to IgE antibody, rank of the sequence (Key/Preferably/More preferably/Further preferably): serum of patient P2 (WDEIA)
# Procedure: The peptides to be synthesized were shifted by one amino acid.
# The library was prepared by the same procedure as described above in (A), and the presence or absence of binding of an IgE antibody present in the serum of a patient to each peptide fragment was measured by the same technique as described above. Numeric values determined from images obtained as a result of carrying out only the procedures (1) and (4) to (6) described above in the subsection titled (3) Spotting of cellulose-bound peptide solution were used as control values. The control value of each peptide was subtracted from numeric values determined from images obtained from results about the serum of patients, and the obtained value of the difference was compared with values of the peptides serving as the basis of overlapping.
# Chemiluminescence intensity in images obtained by measurement was converted into a numeric value in the same manner as in (A). Numeric values determined from images obtained as a result of carrying out only the procedures (1) and (4) to (6) described above in the subsection titled (3) Spotting of cellulose-bound peptide solution (secondary antibody measurement values) were used as control values. The control value of each peptide was subtracted from numeric values determined from images obtained from results about the serum of patients. When values obtained using the sequences (SEQ ID NOs: 29, 131, 191, 281, 346, 414, 493, 562, 640, 706, 776, 899, 974, 1010, 1089, 1142, 1166, 1209, 1257, 1297, 1367, 1403, 1508, 1566, 1598, 1608, 1685, 1753, 1789, 1836, 1895, 1977, 2004, 2027, 2068, 2154, 2217, 2265, 2309, 2342, 2419, 2491, 2545, 2613, 2631, 2674, 2701, 2774, 2809 and 2830) serving as the basis of overlapping were defined as 100%, it was determined that: a peptide having a value of the difference that was less than 30% had no binding activity against IgE antibodies; a peptide having a value of the difference that was 30% or more and less than 50% had binding activity, albeit poor, against IgE antibodies; a peptide having a value of the difference that was 50% or more and less than 70% had binding activity, albeit somewhat poor, against IgE antibodies; and a peptide having a value of the difference that was 70% or more had equivalent or good binding activity against IgE antibodies and was thus a peptide had remaining binding activity against IgE antibodies.
# [1] = serum of patient P51 (child, general immediate type allergy to wheat)
# [2] = serum of patient G7 (adult, general immediate type allergy to wheat)
substance,measurement,setting,value
1357 (NVEN; REGION 1..4: note = epitope) [compound 1357],"Epitope sequence binding to IgE antibody, rank of the sequence",serum of patient P36 (WDEIA),Key
1358 (VEDNRRALR; REGION 1..9: note = epitope) [compound 1358],"Epitope sequence binding to IgE antibody, rank of the sequence",serum of patient P36 (WDEIA),Preferably
1360 (INVEN; REGION 1..5: note = epitope) [compound 1360],"Epitope sequence binding to IgE antibody, rank of the sequence",[1],Preferably
1361 (NVEN; REGION 1..4: note = epitope) [compound 1361],"Epitope sequence binding to IgE antibody, rank of the sequence",[1],Key
1365 (SINVEN; REGION 1..6: note = epitope) [compound 1365],"Epitope sequence binding to IgE antibody, rank of the sequence",[2],Preferably
1366 (INVEN; REGION 1..5: note = epitope) [compound 1366],"Epitope sequence binding to IgE antibody, rank of the sequence",[2],Key
1368 (KPWQQQ; REGION 1..6: note = epitope) [compound 1368],"Epitope sequence binding to IgE antibody, rank of the sequence (Key/Preferably/More preferably/Further preferably)",,Key
1369 (QQPLPPQQ; REGION 1..8: note = epitope) [compound 1369],"Epitope sequence binding to IgE antibody, rank of the sequence (Key/Preferably/More preferably/Further preferably)",,Preferably
1370 (QPLPPQQ; REGION 1..7: note = epitope) [compound 1370],"Epitope sequence binding to IgE antibody, rank of the sequence (Key/Preferably/More preferably/Further preferably)",,Key
1371 (QPLPPQQQP; REGION 1..9: note = epitope) [compound 1371],"Epitope sequence binding to IgE antibody, rank of the sequence",serum of patient P4 (WDEIA),Preferably
1372 (QPLPPQQQ; REGION 1..8: note = epitope) [compound 1372],"Epitope sequence binding to IgE antibody, rank of the sequence",serum of patient P4 (WDEIA),Key
1374 (PWQQQPLP; REGION 1..8: note = epitope) [compound 1374],"Epitope sequence binding to IgE antibody, rank of the sequence",serum of patient P7 (WDEIA),Preferably
1375 (PWQQQPL; REGION 1..7: note = epitope) [compound 1375],"Epitope sequence binding to IgE antibody, rank of the sequence",serum of patient P7 (WDEIA),Key
1378 (QQPLPPQQQP; REGION 1..10: note = epitope) [compound 1378],"Epitope sequence binding to IgE antibody, rank of the sequence",serum of patient P9 (WDEIA),Preferably
1380 (PWQQQPLPPQ; REGION 1..10: note = epitope) [compound 1380],"Epitope sequence binding to IgE antibody, rank of the sequence",serum of patient P10 (WDEIA),Key
1381 (PWQQQPLPPQ; REGION 1..10: note = epitope) [compound 1381],"Epitope sequence binding to IgE antibody, rank of the sequence",serum of patient P12 (WDEIA),Preferably
1382 (PWQQQPLPP; REGION 1..9: note = epitope) [compound 1382],"Epitope sequence binding to IgE antibody, rank of the sequence",serum of patient P12 (WDEIA),Key
1383 (PPQQQ; REGION 1..5: note = epitope) [compound 1383],"Epitope sequence binding to IgE antibody, rank of the sequence",serum of patient P12 (WDEIA),Key
1385 (KPWQQQPLP; REGION 1..9: note = epitope) [compound 1385],"Epitope sequence binding to IgE antibody, rank of the sequence",serum of patient P14 (WDEIA),Preferably
1388 (QQPLPPQQQ; REGION 1..9: note = epitope) [compound 1388],"Epitope sequence binding to IgE antibody, rank of the sequence",serum of patient P14 (WDEIA),Preferably
1390 (PWQQQ; REGION 1..5: note = epitope) [compound 1390],"Epitope sequence binding to IgE antibody, rank of the sequence",serum of patient P15 (WDEIA),Key
1391 (QPLPPQQQ; REGION 1..8: note = epitope) [compound 1391],"Epitope sequence binding to IgE antibody, rank of the sequence",serum of patient P15 (WDEIA),Key
1393 (QPLPPQQQ; REGION 1..8: note = epitope) [compound 1393],"Epitope sequence binding to IgE antibody, rank of the sequence",serum of patient P21 (WDEIA),Preferably
1394 (QPLP; REGION 1..4: note = epitope) [compound 1394],"Epitope sequence binding to IgE antibody, rank of the sequence",serum of patient P21 (WDEIA),Key
1401 (KPWQQQ; REGION 1..6: note = epitope) [compound 1401],"Epitope sequence binding to IgE antibody, rank of the sequence",serum of patient P35 (WDEIA),Preferably
1405 (YLQPQQPISQ; REGION 1..10: note = epitope) [compound 1405],"Epitope sequence binding to IgE antibody, rank of the sequence (Key/Preferably/More preferably/Further preferably)",,Key
1407 (YLQPQQPISQ; REGION 1..10: note = epitope) [compound 1407],"Epitope sequence binding to IgE antibody, rank of the sequence",serum of patient P3 (WDEIA),Preferably
1409 (QPQQPISQQQ; REGION 1..10: note = epitope) [compound 1409],"Epitope sequence binding to IgE antibody, rank of the sequence",serum of patient P3 (WDEIA),Preferably
1411 (QQPISQQQAQ; REGION 1..10: note = epitope) [compound 1411],"Epitope sequence binding to IgE antibody, rank of the sequence",serum of patient P3 (WDEIA),Preferably
1414 (YLQPQQPISQ; REGION 1..10: note = epitope) [compound 1414],"Epitope sequence binding to IgE antibody, rank of the sequence",serum of patient P4 (WDEIA),Preferably
1415 (YLQPQQPIS; REGION 1..9: note = epitope) [compound 1415],"Epitope sequence binding to IgE antibody, rank of the sequence",serum of patient P4 (WDEIA),Key
1416 (YLQPQQPIS; REGION 1..9: note = epitope) [compound 1416],"Epitope sequence binding to IgE antibody, rank of the sequence",serum of patient P8 (WDEIA),Key
1417 (QQPISQQQAQ; REGION 1..10: note = epitope) [compound 1417],"Epitope sequence binding to IgE antibody, rank of the sequence",serum of patient P8 (WDEIA),Key
1418 (YLQPQQPISQ; REGION 1..10: note = epitope) [compound 1418],"Epitope sequence binding to IgE antibody, rank of the sequence",serum of patient P9 (WDEIA),Preferably
1419 (YLQPQQPIS; REGION 1..9: note = epitope) [compound 1419],"Epitope sequence binding to IgE antibody, rank of the sequence",serum of patient P9 (WDEIA),Key
1420 (SQQQA; REGION 1..5: note = epitope) [compound 1420],"Epitope sequence binding to IgE antibody, rank of the sequence",serum of patient P9 (WDEIA),Key
1422 (YLQPQQ; REGION 1..6: note = epitope) [compound 1422],"Epitope sequence binding to IgE antibody, rank of the sequence",serum of patient P10 (WDEIA),Preferably
1423 (YLQPQ; REGION 1..5: note = epitope) [compound 1423],"Epitope sequence binding to IgE antibody, rank of the sequence",serum of patient P10 (WDEIA),Key
1424 (SQQQA; REGION 1..5: note = epitope) [compound 1424],"Epitope sequence binding to IgE antibody, rank of the sequence",serum of patient P10 (WDEIA),Key
1425 (YLQPQQPIS; REGION 1..9: note = epitope) [compound 1425],"Epitope sequence binding to IgE antibody, rank of the sequence",serum of patient P12 (WDEIA),Preferably
1426 (YLQPQ; REGION 1..5: note = epitope) [compound 1426],"Epitope sequence binding to IgE antibody, rank of the sequence",serum of patient P12 (WDEIA),Key
1427 (YLQPQQPISQ; REGION 1..10: note = epitope) [compound 1427],Rank of partial sequence as epitope binding to IgE antibody,serum of patient P14 (WDEIA),More preferably
1428 (YLQPQQPIS; REGION 1..9: note = epitope) [compound 1428],Rank of partial sequence as epitope binding to IgE antibody,serum of patient P14 (WDEIA),Preferably
1429 (YLQPQQ; REGION 1..6: note = epitope) [compound 1429],Rank of partial sequence as epitope binding to IgE antibody,serum of patient P14 (WDEIA),Key
1430 (YLQPQQPIS; REGION 1..9: note = epitope) [compound 1430],Rank of partial sequence as epitope binding to IgE antibody,serum of patient P15 (WDEIA),Preferably
1431 (YLQPQQP; REGION 1..7: note = epitope) [compound 1431],Rank of partial sequence as epitope binding to IgE antibody,serum of patient P15 (WDEIA),Key
1432 (SQQQAQ; REGION 1..6: note = epitope) [compound 1432],Rank of partial sequence as epitope binding to IgE antibody,serum of patient P15 (WDEIA),Key
1434 (YLQPQQPI; REGION 1..8: note = epitope) [compound 1434],Rank of partial sequence as epitope binding to IgE antibody,serum of patient P16 (WDEIA),Preferably
1436 (LQPQQP; REGION 1..6: note = epitope) [compound 1436],Rank of partial sequence as epitope binding to IgE antibody,serum of patient P16 (WDEIA),Key
1437 (PQQPISQQQA; REGION 1..10: note = epitope) [compound 1437],Rank of partial sequence as epitope binding to IgE antibody,serum of patient P16 (WDEIA),Preferably
1439 (SQQQA; REGION 1..5: note = epitope) [compound 1439],Rank of partial sequence as epitope binding to IgE antibody,serum of patient P16 (WDEIA),Key
